According to US9271978B2 (Zenith Epigenetics Corp., priority 2012, dated 2016):

Experiments:
[1] = tested on: human AML MV-4-11 (CRL-9591) cells; assay: Inhibition of cell proliferation in MV4-11 cells; type: cell-based; parameters: key: Active: Compounds with an IC50 value less than 30 μM were deemed to be active.; Not Active: Compounds with an IC50 value less than 30 μM were deemed to be active; details: human AML MV-4-11 cells, 72 h; active = IC50 <30 μM
Summary of the method: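 IC50 values come from blank-corrected proliferation relative to DMSO controls, read as 490 nm absorbance 3–4 h after CellTiter Aqueous One addition. Before that, cells seeded at 5×10^4/well were exposed for 72 h (37° C, 5% CO2) to triplicate two-fold compound dilutions spanning 30–0.2 μM.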

[2] = target: T1, second bromodomain of Brd2 (BRD2(2)) (Homo sapiens, UniProt P25440); assay: Inhibition of tetra-acetylated histone H4 binding to Brd2 bromodomain 2 (TR-FRET); parameters: key: Active: Compounds with an IC50 value less than 30 μM were deemed to be active.; Not Active: Compounds with an IC50 value less than 30 μM were deemed to be active; details: tetra-acetylated histone H4 peptide, active = IC50 <30 μM
T1 construct: made in house; host or cells: E. coli BL21 (DE3)
T1 sequence (P25440 344-453 limits assumed): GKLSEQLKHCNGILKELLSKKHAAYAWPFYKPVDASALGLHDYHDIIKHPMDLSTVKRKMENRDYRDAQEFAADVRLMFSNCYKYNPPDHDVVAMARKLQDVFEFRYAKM
Summary of the method: (§1)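 IC50 values come from dose-response curves of the 665 nm to 620 nm TR-FRET signal decrease, measured after 2 h at room temperature. Reactions contained 200 nM E. coli-expressed His-tagged bromodomain, 25-50 nM biotinylated tetra-acetylated H4 peptide, Eu-streptavidin plus XL665 anti-His antibody, with 30 mM HEPES pH 7.4, 320 mM KF and 0.2% DMSO.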

hIL-6 mRNA = assay: Inhibition of hIL-6 mRNA transcription in U937 cells; type: cell-based, human; parameters: key: Active: Compounds with an IC50 value less than 30 μM were deemed to be active.; Not Active: Compounds with an IC50 value less than 30 μM were deemed to be active; details: LPS stimulation, active = IC50 <30 μM
Summary of the method: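 Readout is one-step real-time PCR of hIL-6 mRNA, normalized to an internal control and given as fold induction versus control. Cells: PMA (60 ng/mL, 3 days)-differentiated U937 macrophages, compound added 1 h before 1 ug/mL LPS, harvested after 3 h at 37° C.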

[3] = target: T2, Brd4 bromodomain 1 (BRD4(1)) (Homo sapiens, UniProt O60885); assay: Inhibition of tetra-acetylated histone H4 binding to Brd4 bromodomain 1 (TR-FRET); parameters: key: Active: Compounds with an IC50 value less than 30 μM were deemed to be active.; Not Active: Compounds with an IC50 value less than 30 μM were deemed to be active; details: tetra-acetylated histone H4 peptide, active = IC50 <30 μM
T2 construct: Illustrative results with the first bromodomain of Brd4; made in house; host or cells: E. coli BL21 (DE3)
Summary of the method: as §1

ApoA-I mRNA = assay: Up-regulation of hApoA-1 mRNA transcription in Huh7 cells; type: cell-based, human; parameters: key: Active: Compounds with an EC170 value less than 30 μM were deemed to be active; details: 48 h treatment, ApoA-I mRNA by real-time PCR, Active = EC170 less than 30 μM
Protocol: In this example, ApoA-I mRNA in tissue culture cells was quantitated to measure the transcriptional up-regulation of ApoA-I when treated with a compound of the present disclosure.
Huh7 cells (2.5×10^5 per well) were plated in a 96-well plate using 100 μL DMEM per well, (Gibco DMEM supplemented with penicillin/streptomycin and 10% FBS), 24 h before the addition of the compound of interest. After 48 h treatment, the spent media was removed from the Huh-7 cells and placed on ice (for immediate use) or at −80° C. (for future use) with the “LDH cytotoxicity assay Kit II” from Abcam. The cells remaining in the plate were rinsed with 100 μL PBS.
Then 85 μL of cell lysis solution was added to each well and incubated for 5-10 min at room temperature, to allow for complete cell lysis and detachment. mRNA was then prepared using the “mRNA Catcher PLUS plate” from Life Technologies, according to the protocol supplied. After the last wash, as much wash buffer as possible was aspirated without allowing the wells to dry. Elution Buffer (E3, 80 μL) was then added to each well. mRNA was then eluted by incubating the mRNA Catcher PLUS plate with Elution Buffer for 5 min at 68° C., and then 1 min at 4° C. Catcher plates with mRNA eluted were kept on ice for use or stored at −80° C.
The eluted mRNA isolated was then used in a one-step real-time PCR reaction, using components of the Ultra Sense Kit together with Life Technologies primer-probe mixes. Real-time PCR data was analyzed, using the Ct values, to determine the fold induction of each unknown sample, relative to the control (that is, relative to the control for each independent DMSO concentration).
Compounds with an EC170 value less than 30 μM were deemed to be active.

c-myc = assay: Inhibition of c-myc expression in MV4-11 cells (mRNA, real-time PCR); type: cell-based; parameters: key: Active: Compounds with an IC50 value less than 30 μM were deemed to be active.; Not Active: Compounds with an IC50 value less than 30 μM were deemed to be active; details: Human AML MV4-11 cells, 3 h incubation
Summary of the method: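 Duplex RT-qPCR of c-myc against cyclophilin cDNA gave IC50 from a dose–response curve. Input was isolated mRNA from 2.5×10^4 MV4-11 cells after 3 h exposure at 37 °C to compound or 0.1% DMSO vehicle.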

Compound | Cell Proliferation activity (IC50 <30 μM) [1] | FRET activity (IC50 <30 μM) BRD2(2) [2] | IL-6 activity (IC50 <30 μM) (hIL-6 mRNA) | FRET activity (IC50 <30 μM) BRD4(1) [3] | ApoA-1 activity (EC170 <30 μM) (ApoA-I mRNA) | c-myc activity (IC50 <30 μM) (c-myc)
Cc1noc(C)c1-c1cn(Cc2ccccc2)c(=O)cn1 [Example 6, 1-Benzyl-5-(3,5-dimethylisoxazol-4-yl)pyrazin-2(1H)-one] | Active | Active | Active | Active | Active | –
Cc1noc(C)c1-c1ccc(=O)n(Cc2ccc(C(F)(F)F)cc2)c1 [Example 7, 5-(3,5-Dimethylisoxazol-4-yl)-1-(4-(trifluoromethyl)benzyl)pyridin-2(1H)-one] | Active | Active | Active | Active | Active | –
COc1cc(-c2ccc(=O)n(Cc3ccc(C#N)cc3)n2)cc(OC)c1OC [Example 16, 4-((6-Oxo-3-(3,4,5-trimethoxyphenyl)pyridazin-1(6H)-yl)methyl)benzonitrile] | – | Active | – | Active | Active | Not Active
Cc1noc(C)c1-c1cc(Nc2ccccc2)c(=O)n(Cc2ccccc2)c1 [Example 72, 1-Benzyl-5-(3,5-dimethylisoxazol-4-yl)-3-(phenylamino)pyridin-2(1H)-one] | – | Active | Active | Active | Active | Active
CN1CCN(c2ccc(=O)n(Cc3ccccc3)n2)CC1=O [Example 179, 2-benzyl-6-(4-methyl-3-oxopiperazin-1-yl)pyridazin-3(2H)-one] | Active | – | Active | Active | Active | Active
Cc1noc(C)c1-c1cc(Cl)c(=O)n(Cc2ccc(F)cc2)c1 [Example 181, 3-chloro-5-(3,5-dimethylisoxazol-4-yl)-1-(4-fluorobenzyl)pyridin-2(1H)-one] | Not Active | – | Not Active | Active | Active | Active
Cc1noc(C)c1-c1cc(Nc2ccccc2)c(=O)n(Cc2ccc(F)cc2)c1 [Example 182, 5-(3,5-dimethylisoxazol-4-yl)-1-(4-fluorobenzyl)-3-(phenylamino)pyridin-2(1H)-one] | Not Active | – | Active | Active | Active | Active
Cc1noc(C)c1-c1cc(N2CCC2)c(=O)n(Cc2ccccc2)c1 [Example 183, 3-(Azetidin-1-yl)-1-benzyl-5-(3,5-dimethylisoxazol-4-yl)pyridin-2(1H)-one] | Active | – | – | Active | Active | Active
Cc1noc(C)c1-c1cc(Nc2ccn(C)n2)c(=O)n(Cc2ccccc2)c1 [Example 184, 1-benzyl-5-(3,5-dimethylisoxazol-4-yl)-3-((1-methyl-1H-pyrazol-3-yl)amino)pyridin-2(1H)-one] | Active | – | – | Active | Active | Active
Cc1noc(C)c1-c1cc(-c2cccc(C(N)=O)c2)c(=O)n(Cc2ccccc2)c1 [Example 185, 3-(1-benzyl-5-(3,5-dimethylisoxazol-4-yl)-2-oxo-1,2-dihydropyridin-3-yl)benzamide] | Active | – | Not Active | Active | Active | Active
CCNc1cc(-c2c(C)noc2C)cn(Cc2ccccc2)c1=O [Example 186, 1-benzyl-5-(3,5-dimethylisoxazol-4-yl)-3-(ethylamino)pyridin-2(1H)-one] | Active | – | Active | Active | Active | Active
Cc1onc(CO)c1-c1cc(N)c(=O)n(Cc2ccccc2)c1 [Example 189, 3-Amino-1-benzyl-5-(3-(hydroxymethyl)-5-methylisoxazol-4-yl)pyridin-2(1H)-one] | Active | – | Active | Active | Active | Active
Cc1noc(C)c1-c1cc(N2CCOCC2)c(=O)n(Cc2ccccc2)c1 [Example 190, 1-benzyl-5-(3,5-dimethylisoxazol-4-yl)-3-morpholinopyridin-2(1H)-one] | Active | – | Not Active | Active | Active | Active
Cc1noc(C)c1-c1cc(OCc2ccccc2)c(=O)n(Cc2ccccc2)c1 [Example 191, 1-benzyl-3-(benzyloxy)-5-(3,5-dimethylisoxazol-4-yl)pyridin-2(1H)-one] | Active | – | Not Active | Active | Active | Active
